Test results published in paper PMC8245773, “Brevibacillin 2V, a Novel Antimicrobial Lipopeptide With an Exceptionally Low Hemolytic Activity” (Frontiers in Microbiology, 2021).
*1 amine or outer side, *2 acyl side, *3 side chain or, on linkers, in order; H or OH if unused. Where a SMILES comes first, the peptide text is derived from it. [ ]: non-standard residue; d: D form. The star is where a group is joined. X2 = CC=C(N[*:1])C(=O)[*:2]; dOrn = NCCC[C@@H](N)C(=O)O; Valol = CC(C)[C@@H](CO)N*; X1 = CCC(C)C(O)C(=O)*

Key:
[1] = tested on: human erythrocytes; test: Hemolytic activity
Protocol: This assay was performed as per the method described in previous studies ([Ling et al., 2015]; [Li et al., 2018]). Briefly, erythrocytes were isolated from a healthy human volunteer donor (ordered from Sanquin, Netherlands^1) and washed with phosphate-buffered saline (PBS) three times. After that, peptides were added at final concentrations of 128, 64, 32, 16, 8, 4, 2, 1, and 0 mg/L in PBS containing 2% (v/v) erythrocytes. The cells were incubated at 37°C for 1 h and centrifuged for 5 min at 8,000 g. The supernatant was transferred to a 96-well plate, and the absorbance was measured at a wavelength of 450 nm with a Thermo Scientific Varioskan^TM LUX multimode microplate reader. The absorbance relative to the positive control, which was treated with 10% Triton X-100, was defined as the percentage of hemolysis. The 50% human blood cell hemolysis concentration (HC50) of peptides was calculated as described in previous studies ([Reed and Muench, 1938]).
(§1) GraphPad Prism 7.0 was used to fit the data of hemolytic assay and cytotoxicity assay in Figure 3. The experiments were conducted in triplicate, and data are presented as the mean value of triplicate experiments. Data Explorer Software was used to analyze the MALDI-TOF data; Thermo Scientific Xcalibur software was used to analyze the LC–MS/MS data. The statistical significance of the data was assessed using Duncan’s multiple-range test with the software SPSS Statistics 19.0. P-values less than 0.05 were considered to be statistically significant.

[2] = tested on: HepG2 cells; settings: for HepG2 CC50: 24 h
Protocol: The cytotoxicity of brevibacillins was evaluated on HepG2 cells by using the XTT (Cell Proliferation Kit XTT, AppliChem) assay ([Roehm et al., 1991]). HepG2 cells [in Dulbecco’s modified Eagle’s medium (DMEM) supplemented with 10% fetal bovine serum] were seeded into 96-well plates and incubated at 37°C with 5% CO2. After 24 h, the medium was replaced with a fresh medium (DMEM with 2% FBS, 100 μl per well) containing different concentrations of brevibacillins ([Zhao et al., 2017]). After 24 h of incubation, the XTT reagent was added to the cultures according to the manufacturer’s instructions, and the plates were incubated at 37°C for 2 h with 5% CO2. Subsequently, the absorbance values were measured by using a Varioskan^TM LUX multimode microplate reader (Thermo Fisher Scientific) at 485 nm (reference, 690 nm). The 50% cell toxicity (CC50) of peptides was calculated as described in a previous study ([Reed and Muench, 1938]).
as §1

[3] = cited from earlier work
Protocol: For cytotoxicity assays, HepG2 cells were incubated in the presence of brevibacillin concentrations ranging from 2 to 64 mg/L. After 24 h of incubation, cell viability was determined using an XTT kit.

| Compound | hemolytic activity at 128 mg/L [1] | HC50 (concentration that causes 50% hemolysis of human red blood cells) ([1]; red cells of human, 1 h) [mg/L] | CC50 (HepG2) relative to MIC values against bacterial pathogens [2] | cytotoxicity to HepG2 cells at 16 mg/L [2] | HepG2 CC50 [2] [µg/mL] | CC50 [3] | hemolytic activity at 64 mg/L [1] |
| --- | --- | --- | --- | --- | --- | --- | --- |
| CC=C(NC(=O)C(O)C(C)CC)C(=O)N[C@@H](CC(C)C)C(=O)N[C@H](CCCN)C(=O)N[C@H](C(=O)N[C@H](C(=O)N[C@H](C(=O)N[C@H](CCCCN)C(=O)N[C@H](C(=O)N[C@H](C(=O)N[C@@H](CCCCN)C(=O)N[C@H](Cc1ccc(O)cc1)C(=O)N[C@@H](CC(C)C)C(=O)N[C@H](CO)C(C)C)C(C)C)C(C)C)C(C)C)C(C)C)[C@@H](C)CC (stereo partly drawn) [brevibacillin V] (X1-[X2]L[dOrn]IVV[dK]VVK[dY]L-Valol) | completely lysed | 73.1 ± 1.4 | 2.5- to fivefold | all of the HepG2 cells were killed | 9.89 ± 0.67 |  |  |
| bogorol |  |  |  |  |  | below 8 mg/L |  |
| CC=C(NC(=O)C(O)C(C)CC)C(=O)N[C@@H](CC(C)C)C(=O)N[C@H](CCCN)C(=O)N[C@H](C(=O)N[C@H](C(=O)N[C@H](C(=O)N[C@H](CCCCN)C(=O)N[C@H](C(=O)N[C@H](C(=O)N[C@@H](CCCCN)C(=O)N[C@H](Cc1ccc(O)cc1)C(=O)N[C@@H](CC(C)C)C(=O)N[C@H](CO)C(C)C)C(C)C)[C@@H](C)CC)C(C)C)[C@@H](C)CC)[C@@H](C)CC (stereo partly drawn) [brevibacillin I] (X1-[X2]L[dOrn]IIV[dK]IVK[dY]L-Valol) |  |  | 2.5- to fivefold | all of the HepG2 cells were killed | 7.38 ± 0.30 |  | completely lysed |
